This note sets out measurements from ChEMBL document CHEMBL1134156, “Design, synthesis and preliminary evaluation of novel 3'-substituted carboxycyclopropylglycines as antagonists at group 2 metabotropic glutamate receptors” (Bioorg Med Chem Lett, 2001).

The structures appear in SMILES notation. Values joined by “and” are separate entries in the source; they are usually repeats but may differ in a detail not shown here. Identical values can stand only once.

Test [1] has as its target Metabotropic glutamate receptor 3 (Rattus norvegicus, UniProt P31422). In words: Compound was evaluated for the inhibition of binding of [3H]glutamate against rat recombinant Metabotropic glutamate receptor 3 expressed in HEK293 cells. Format: cell-based.
In test [2] the target is Metabotropic glutamate receptor 2 (Homo sapiens, UniProt Q14416). In words: Antagonistic activity against stimulation of GTP (gamma) 35 S binding by glutamate in membranes from CHO cells expressing human Metabotropic glutamate receptor 2. Format: cell membranes.
Metabotropic glutamate receptor 2, sequence (Q14416 whole entry): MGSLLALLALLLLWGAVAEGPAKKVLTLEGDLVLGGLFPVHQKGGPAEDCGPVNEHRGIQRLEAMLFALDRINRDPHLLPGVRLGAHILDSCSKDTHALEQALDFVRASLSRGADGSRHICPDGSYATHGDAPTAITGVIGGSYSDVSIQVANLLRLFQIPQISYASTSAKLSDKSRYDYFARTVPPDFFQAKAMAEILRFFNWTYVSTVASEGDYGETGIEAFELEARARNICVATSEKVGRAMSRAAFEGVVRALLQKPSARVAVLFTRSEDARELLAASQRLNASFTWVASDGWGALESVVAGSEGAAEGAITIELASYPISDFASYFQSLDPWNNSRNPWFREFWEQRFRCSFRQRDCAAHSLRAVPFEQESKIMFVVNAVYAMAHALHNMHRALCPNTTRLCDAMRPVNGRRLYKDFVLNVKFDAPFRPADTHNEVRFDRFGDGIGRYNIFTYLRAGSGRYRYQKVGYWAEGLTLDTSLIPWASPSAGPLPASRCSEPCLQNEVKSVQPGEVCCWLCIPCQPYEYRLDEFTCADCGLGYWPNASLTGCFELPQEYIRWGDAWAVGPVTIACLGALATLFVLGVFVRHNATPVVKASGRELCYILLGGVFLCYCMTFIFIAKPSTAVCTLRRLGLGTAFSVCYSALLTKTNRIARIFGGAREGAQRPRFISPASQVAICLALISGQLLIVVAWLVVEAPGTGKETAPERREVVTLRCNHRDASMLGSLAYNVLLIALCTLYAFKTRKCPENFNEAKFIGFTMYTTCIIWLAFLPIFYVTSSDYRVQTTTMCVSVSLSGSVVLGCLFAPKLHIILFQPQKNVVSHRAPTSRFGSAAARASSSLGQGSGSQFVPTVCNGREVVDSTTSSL
Test [3] can be described thus: Effect of compound on GluR mediated phosphoinositol metabolisim at conc of 10 uM of GluR1b. Type of test: functional.
Test [4] in a line: Effect of compound on GluR mediated phosphoinositol metabolisim at conc of 10 uM of mGluR5a. Type of test: functional.
Test [5] is described as follows: Effect of compound on GluR mediated phosphoinositol metabolisim at conc of 50 uM of GluR1b. Type of test: functional.
The nature of test [6]: Effect of compound on GluR mediated phosphoinositol metabolisim at conc of 50 uM of mGluR5a. Type of test: functional.
Test [7] in a line: Hill coefficient was determined.

Metabotropic glutamate receptor 3, sequence (P31422 whole entry): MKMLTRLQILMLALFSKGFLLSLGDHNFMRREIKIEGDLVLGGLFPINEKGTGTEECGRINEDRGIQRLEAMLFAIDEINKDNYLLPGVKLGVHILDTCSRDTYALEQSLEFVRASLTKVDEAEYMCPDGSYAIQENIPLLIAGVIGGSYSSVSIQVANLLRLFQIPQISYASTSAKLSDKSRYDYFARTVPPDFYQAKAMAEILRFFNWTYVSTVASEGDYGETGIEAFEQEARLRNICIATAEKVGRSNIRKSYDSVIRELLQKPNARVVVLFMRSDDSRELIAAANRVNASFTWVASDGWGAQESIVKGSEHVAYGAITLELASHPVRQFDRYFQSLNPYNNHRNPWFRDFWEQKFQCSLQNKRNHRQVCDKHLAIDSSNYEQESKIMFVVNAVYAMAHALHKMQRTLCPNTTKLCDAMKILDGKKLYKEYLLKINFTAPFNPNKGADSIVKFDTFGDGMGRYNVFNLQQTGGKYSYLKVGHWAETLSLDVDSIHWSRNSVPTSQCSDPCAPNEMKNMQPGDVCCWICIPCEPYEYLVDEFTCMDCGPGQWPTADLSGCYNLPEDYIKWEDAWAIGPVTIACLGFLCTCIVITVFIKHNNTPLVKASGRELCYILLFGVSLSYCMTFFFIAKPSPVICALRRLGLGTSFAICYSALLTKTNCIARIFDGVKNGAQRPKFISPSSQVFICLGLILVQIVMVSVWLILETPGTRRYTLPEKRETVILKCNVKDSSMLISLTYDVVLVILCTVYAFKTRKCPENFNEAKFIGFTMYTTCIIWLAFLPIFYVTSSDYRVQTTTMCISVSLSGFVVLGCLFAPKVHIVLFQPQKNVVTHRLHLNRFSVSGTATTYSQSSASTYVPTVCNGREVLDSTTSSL

For `NC(C(=O)O)[C@H]1[C@@H](CCC2c3ccccc3Oc3ccccc32)[C@@H]1C(=O)O` (stereo not given in full), the concentration for half-maximal inhibition (IC50) was 75 nM in test [1] and 200 nM in test [2]. In addition, the affinity in test [2] corresponds to a Ki of 85 nM. In addition, the Activity in test [3] is 110%; in test [4], 103%; in test [5], 111%; in test [6], 91%. Moreover, the Hill coefficient in test [7] is 0.92 and 1.09.
Regarding `NC(C(=O)O)[C@H]1[C@@H](CC2c3ccccc3Oc3ccccc32)[C@@H]1C(=O)O` (stereo not given in full), the IC50 in test [1] stood at 1300 nM. Moreover, the affinity in test [2], expressed as Ki, was 2700 nM. Further, the Activity turned out to be 131% in test [3], 101% in test [4], 95% in test [5] and 94% in test [6]. Further, the Hill coefficient in test [7] is 0.93 and 0.78.
